# Entries after “also recorded” stand apart in the source; their conditions may differ.
# Experiments:
# [1] = Stability in plasma (rat); type: in vitro ADME; conditions: after 120 minutes, 37° C.
# Procedure: The pH of plasma was adjusted to 7.4±0.1 if required. 1 mM intermediate solution was prepared by diluting 10 μL of the 10 mM stock solution of 1 with 90 μL DMSO; 1 mM intermediate of positive control propantheline bromide was prepared by diluting 10 μL of the stock solution with 90 μL ultra-pure water. 100 μM dosing solution was prepared by diluting 10 μL of the 1 mM intermediate solution with 90 μL of 45% MeOH/H2O. 98 μL of blank plasma was spiked with 2 μL of the 100 μM dosing solution to achieve a final concentration of 2 μM of the compound in duplicate. Samples were incubated at 37° C. in a water bath. At each time point (0, 10, 30, 60 and 120 min), 400 μL of stop solution (200 ng/mL tolbutamide plus 200 ng/mL labetalol in 50% ACN/MeOH) was added and was mixed thoroughly to precipitate protein. Sample plates were centrifuged at 4,000 rpm for 10 min. An aliquot of supernatant (100 μL) was transferred from each well and was mixed with 200 μL ultra-pure water. The samples were shaken at 800 rpm for about 10 min before LC/MS/MS analysis.
# The remaining percentage of compound 1 (test article) after incubation was calculated according to the following equation.
# Caco-2 cells = test: Bidirectional permeability in Caco-2 cells; type: in vitro ADME; conditions: 2 μM, 2 hours
# Procedure: Caco-2 cells purchased from ATCC were seeded onto […] (PET) in 96-well BD Insert plates at 1×10^5 cells/cm^2, and the medium was refreshed every 4˜5 days until to the 21st to 28th day for formation of a confluent cell monolayer.
# The transport buffer in the study was Hank's balanced salt solution (HBSS) with 10 mM HEPES at pH 7.40±0.05. Compound 1 was tested at 2 μM bi-directionally in duplicate. Digoxin was tested at 10 μM bi-directionally in duplicate, while nadolol and metoprolol were tested at 2 μM in A to B direction in duplicate. Final DMSO concentration was adjusted to less than 1%. […] Concentrations of compound 1 and […] in starting solution, donor solution, and receiver solution were quantified by LC/MS/MS methodologies, using peak area ratio of analyte/internal standard. […]
# The apparent permeability coefficient Papp (cm/s) was calculated using the equation: Papp=(dCr/dt)×Vr/(A×C0) where dCr/dt is the cumulative concentration of compound in the receiver chamber as a function of time (μM/s); Vr is the solution volume in the receiver chamber (0.075 mL on the apical side, 0.25 mL on the basolateral side); A is the surface area for the transport, i.e. 0.0804 cm^2 for the area of the monolayer; Co is the initial concentration in the donor chamber (μM).
# The efflux ratio was calculated using the equation: Efflux Ratio=Papp(BA)/Papp(AB) […]
# [2] = test system: EPC2 human esophageal keratinocytes; test: Stimulation of EPC2-hTERT human esophageal keratinocytes with Poly(I:C); type: cell-based; conditions: 24 hours, increasing concentrations
# Procedure: EPC2-hTERT (EPC2) cells were maintained in supplemented keratinocyte serum-free medium (KSFM) with 0.09 mM calcium chloride containing epidermal growth factor (5 ng/mL), bovine pituitary extract ([…]), penicillin (100 units/mL), and streptomycin ([…]) (ThermoFisher #17005042) at 37° C. with 5% (v/v) CO2. EPC2 cells were seeded in 12-well plates at 0.55×10^6 cells per well in supplemented KSFM at 37° C. with 5% (v/v) CO2 and after 6 hours the old media is removed and changed with fresh media. After overnight incubation, the old media is changed to supplemented KSFM containing 1.8 mM calcium chloride and incubated for 72 hours at 37° C. with 5% (v/v) CO2. After the old media is removed and fresh supplemented KSFM containing 1.8 mM calcium chloride is added, the cells are pre-treated with different concentrations of compounds (0, 1, 10, 100, 500, 1000 μM) for 1 hour prior to stimulation. To stimulate the cells, Poly (I:C) (Tocris #4287) is added to the wells at […] concentration without removing the media and incubated for 24 hours at 37° C. with 5% (v/v) CO2. Supernatants are collected in Eppendorf tubes, centrifuged in a microfuge at maximum speed for 10 minutes at 4° C., and the centrifuged supernatants stored at −80° C. until quantitative detection assays are performed. Human Interleukin-6 (IL-6), Monocyte Chemoattractant Protein-1 (MCP-1), and Thymic stromal lymphopoietin (TSLP) released from supernatants collected post stimulation were measured using the AlphaLISA detection kit for human IL-6, MCP-1, and TSLP, respectively.
remaining percentage after incubation [1] [%],bidirectional permeability (Caco-2 cells),Structure (SMILES),percent inhibition relative to Stimulated of TSLP expression ([2]; FIG. 19A),percent inhibition relative to Stimulated of IL-6 expression ([2]; FIG. 19B),percent inhibition relative to Stimulated of MCP-1 expression ([2]; FIG. 19C)
19.2,high bidirectional permeability,"C[C@H](CC/C=C/C(=O)OC(C)(C)C)O[C@@H]1O[C@@H](C)[C@H](O)C[C@H]1O [Compound 1, tert-butyl (2E,6R)-6-{[(2R,3R,5R,6S)-3,5-dihydroxy-6-methyloxan-2-yl]oxy}hept-2-enoate]",statistically significant inhibition; also recorded: robust blocking,"inhibited IL-6 expression in statistically significant, dose-dependent manner","inhibited MCP-1 expression in statistically significant, dose-dependent manner"
99.8,low bidirectional permeability,"C[C@H](CC/C=C/C(=O)O)O[C@@H]1O[C@@H](C)[C@H](O)C[C@H]1O [ascr #7, reference compound]",–,–,–

# Reference: US11845770B2, “Ascaroside derivatives and methods of use” (California Institute of Technology, priority 2019, dated 2023)
